Data from patent publication US6057348A (Oregon State University, priority 1998, dated 2000).
Entries after “also recorded” stand apart in the source; their conditions may differ.

How the values were obtained:
MCF-7 cells = experiment: Inhibition of MCF-7 breast cancer cell growth (sulforhodamine B); type: cell-based; conditions: Homo sapiens, MCF7; 48 hours drug exposure; ± SD
Description: (§1) Electrophoretically homogeneous bovine brain tubulin was prepared as described previously (20). Nonradiolabeled colchicine was obtained from Sigma and [^3 H]colchicine from Dupont-NEN. Stock 2.0 M solutions of monosodium glutamate were adjusted to pH 6.6 with HCl. MCF-7 breast cancer cells were obtained from Dr. D. Scudiero, National Cancer Institute. Curacin A is referred to in the tables provided below, and was obtained as stated in Gerwick's U.S. Pat. No. 5,324,739. All data presented for curacin A represent averages obtained in contemporaneous experiments with natural and synthetic drug. All drugs were dissolved in dimethyl sulfoxide, and control reaction mixtures contained an equivalent amount of the solvent.
IC50 values for inhibition of cell growth were obtained by measuring the amount of total cell protein with the sulforhodamine B assay as described by Skehan et al., "New Colorimetric Cytotoxicity Assay for Anticancer-drug Screening," J. Natl. Cancer Inst., 82:1107-1112 (1990). MCF-7 cells were grown in RPMI 1640 medium containing 17% fetal calf serum, 12 μg/mL gentamicin sulfate and 2 mM glutamine at 37° in 5% CO2. Confluent cells were trypsinized, diluted 40-fold, and seeded into 96-well microtiter plates. After 24 hours of growth without drug, medium with varying concentrations of drug was added to different wells (final concentration of dimethyl sulfoxide, 0.1%). […] The values presented are averages from at least two independent experiments.
(§2) The R1 -R3 substituents referred to in Table 1 are with reference to Formula 11, which, for convenience, is reproduced above Table 1. [drawing 13]

tubulin [1] = experiment: Inhibition of tubulin polymerization (turbidimetric, 350 nm); type: biochemical, bovine; conditions: 1.0 mg/mL tubulin, 0.8 M glutamate, 30°, 20 minutes; ± SD
Description: as §1
Tubulin polymerization was followed turbidimetrically at 350 nm in Gilford model 250 spectrophotometers equipped with electronic temperature controllers. All concentrations refer to the final reaction volume of 0.25 mL, although the preincubation was performed in 0.24 mL, followed by addition of 10 μL of 10 mM GTP. Reaction mixtures contained 1.0 mg/mL tubulin, 0.8 M monosodium glutamate, 4% dimethyl sulfoxide and varying drug concentrations. Samples were preincubated for 15 minutes at 30° and chilled on ice. GTP was added to each reaction mixture, and these were placed in cuvettes held at 0°. Baselines were established, the temperature was raised to 30° (at a rate of about 0.5°/sec), and polymerization was followed for 20 minutes. IC50 values were determined by graphical interpolation of experimental points, with drug-containing samples compared to control reaction mixtures containing dimethyl sulfoxide but no drug. At least three independent IC50 values were obtained with each compound.
as §2

tubulin [2] = experiment: Inhibition of [3H]colchicine binding to tubulin (DEAE-cellulose filter method); parameters: species or system bovine; conditions: 5.0 μM [3H]colchicine, 1.0 μM tubulin; for Inhibition of Colchicine Binding % Inhibition ± SD: inhibitor 5.0 μM; for Inhibition of Colchicine Binding % Inhibition ± SD (values in parentheses): inhibitor 50 μM
Description: as §1
The binding of [^3 H]colchicine to tubulin was measured by the DEAE-cellulose filter method as described by Kang et al., "N-acetylcolchinol O-methyl Ether and Thiocolchicine, Potent Analogs of Colchicine Modified in the C Ring: Evaluation of the Mechanistic Basis for Their Enhanced Biological Properties," J. Biol. Chem. 265:10255-1-259 (1990). Reaction mixtures contained 1.0 μM (0.1 mg/mL) tubulin, 1.0 M monosodium glutamate, 0.1 M glucose-1-phosphate, 1.0 mM MgCl2, 1.0 mM GTP, 0.5 mg/mL bovine serum albumin, 5% (v/v) dimethyl sulfoxide, 5.0 μM [^3 H]colchicine and inhibitor at either 5.0 or 50 μM as indicated. These reaction conditions were used because they strongly stabilize the colchicine binding activity of tubulin. The values presented represent averages of three experiments, each with duplicate samples.
as §2

antimitotic activity = experiment: Biological activity of isolated curacins; conditions: various tests
[3] = tested on: 60 different human tumor cell lines; experiment: NCI 60-cell line screen / mode of action of curazole; type: cell-based; conditions: COMPARE mean-graph profiles / 60-cell line assay
Description: In these examples, curazole was subjected to the drug screening procedure employed by the National Cancer Institute for the screening of drugs having possible anticancer utility. The screening procedure employed a diverse, disease-oriented panel consisting of 60 different human tumor cell lines organized into seven disease-specific subpanels. Curazole was tested over a wide range of concentrations for cytotoxic or growth-inhibitory effects against each cell line comprising the panel. The seven subpanels represented diverse histologies (leukemias, melanomas, and tumors of the lung, colon, kidney, ovary, and brain).
Curazole was tested over a period of several days. During this period the cells were continuously exposed to five log10 -spaced concentrations of the drug starting at about 10^-4 μg/mL. The tests produced 60 individual dose-response curves, one for each cell line (i.e., one for each example).
To produce data for the mean-graph format shown in FIG. 2, a concentration of the extract that produced a target level response was calculated for each cell line. Three different response parameters were evaluated. […] The second response parameter was the total growth inhibition ("TGI"), which is the concentration at which the number of tumor cells remaining at the end of the incubation period substantially equaled the number of tumor cells existing at the start of the incubation period. […]

β-tubulin = conditions: background; cited from earlier work
brine shrimp = conditions: Example 1 of U.S. Pat. No. 5,324,739; cited from earlier work
[4] = tested on: colchicine site of tubulin; conditions: background; cited from earlier work
[5] = Chemical stability on storage neat
microtubule assembly = conditions: background; cited from earlier work
microtubule ends = conditions: low concentrations; background; cited from earlier work
cell growth and mitosis = conditions: background; cited from earlier work
[6] = stored neat; cited from earlier work
tubulin [7] = conditions: background; cited from earlier work

Row | SMILES | IC50 (MCF-7 cells) | IC50 (tubulin [1]) | Inhibition of Colchicine Binding % Inhibition ± SD (tubulin [2]) | biological activity, particularly antimitotic activity (antimitotic activity) | further results
1 | C=CC[C@H](O)CC/C(C)=C/C=C/CC/C=C\[C@@H]1CSC([C@H]2C[C@@H]2C)=N1 [C13 Hydroxyl, Epi C19] | 0.61 ± 0.2 µM | 0.73 ± 0.1 µM | 71 ± 5% | – | –
2 | C=CC[C@@H](CC/C(C)=C/C=C/CC/C=C\[C@@H]1CSC([C@@H]2C[C@@H]2C)=N1)OCOC [C13 Methyl-methoxy] | 0.22 µM | 0.64 ± 0.2 µM | 81 ± 6% | – | –
3 | C=CC[C@@H](CC/C(C)=C/C=C\CC/C=C\[C@@H]1CSC([C@@H]2C[C@@H]2C)=N1)OC [Curacin B] | – | – | – | substantial biological activity, particularly antimitotic activity | –
4 | C=CC[C@@H](CC/C=C/C=C/CC/C=C\[C@@H]1CSC([C@@H]2C[C@@H]2C)=N1)OC [Curacin D] | 0.34 ± 0.1 µM | – | 53 ± 10% | substantial biological activity, particularly antimitotic activity | –
5 | C=CCCc1nc(/C=C\CC/C=C/C=C(\C)CC[C@H](CC=C)OC)cs1 [1-butene derivative] | 0.3 ± 0.2 µM | 0.92 ± 0.2 µM | 83 ± 6% | – | –
6 | CCC[C@@H](CC/C(C)=C/C=C/CCCC[C@@H]1CSC([C@@H]2C[C@@H]2C)=N1)OC [C3,4,15,16 Tetrahydro, 3,4,15,16-tetrahydrocuracin A] | 3.3 ± 2 µM | 4.6 ± 1 µM | 1 ± 1% | – | Inhibition of Colchicine Binding % Inhibition ± SD (values in parentheses) (tubulin [2]): 28 ± 6%
7 | C=CC[C@@H](CC/C(C)=C/C=C/CC/C=C\c1csc([C@@H]2C[C@@H]2C)n1)OC [Curazole, [13R,19R,21S]-1,2-didehydrocuracin A] | 0.3 ± 0.07 µM | 0.74 ± 0.01 µM | 74 ± 11% | – | mode of action [3]: functions as an antimitotic and has a mode of action similar to a number of conventional antineoplastics
8 | CCC[C@@H](CC/C(C)=C/C=C/CC/C=C\[C@@H]1CSC([C@@H]2C[C@@H]2C)=N1)OC [C15,16-dihydro] | 0.046 µM | 1.2 ± 0.2 µM | 85 ± 7% | – | –
9 | C=CC[C@H](O)CC/C(C)=C/C=C/CC/C=C\[C@@H]1CSC([C@@H]2C[C@@H]2C)=N1 [C13 Hydroxyl] | 0.45 ± 0.02 µM | 0.87 ± 0.09 µM | 82 ± 7% | – | –
10 | C=CC[C@@H](CC/C(C)=C/C=C/CC/C=C\[C@@H]1CSC([C@H]2C[C@@H]2C)=N1)OCOC [C13 Methyl-methoxy, Epi C19] | 3.1 ± 2 µM | 3.2 ± 0.3 µM | 16 ± 3% | – | Inhibition of Colchicine Binding % Inhibition ± SD (values in parentheses) (tubulin [2]): 32 ± 4%
11 | C=CCC1(CC/C(C)=C/C=C/CC/C=C\[C@@H]2CSC([C@@H]3C[C@@H]3C)=N2)OCCO1 [C13 Ethylene-dioxy] | 0.03 ± 0.01 µM | 0.78 ± 0.3 µM | 92 ± 1% | – | –
12 | C=CC[C@@H](CC/C(C)=C\C=C\CC/C=C\[C@@H]1CSC([C@@H]2C[C@@H]2C)=N1)OC [Curacin C] | – | – | – | substantial biological activity, particularly antimitotic activity | –
13 | C=CC[C@@H](CC/C(C)=C/C=C/CC/C=C\[C@@H]1CSC([C@@H]2C[C@@H]2C)=N1)OC [Curacin A] | 0.038 ± 0.01 µM | 0.72 ± 0.2 µM | 94 ± 2% | substantial biological activity, particularly antimitotic activity | formation of the cys239-cys354 cross link (β-tubulin): inhibits formation of the cys239-cys354 cross link; effectiveness for reducing a population of arthropods (brine shrimp) (brine shrimp): effectiveness; binding at colchicine site of tubulin [4]: binding rapidly and dissociating slowly from tubulin; also recorded: binding rapidly and tightly at the colchicine site of tubulin; inhibition of the binding of colchicine to tubulin [4]: potent competitive inhibitor of the binding of colchicine to tubulin; stability ([5]; particularly when stored neat): limited stability; biological activity after storage neat ([5]; stored neat versus stored under a solvent): less biological activity than curacin A stored under a solvent; inhibition of microtubule assembly (microtubule assembly): inhibits microtubule assembly; tubulin turnover at microtubule ends (microtubule ends): increase tubulin turnover at microtubule ends; inhibition of cell growth and mitosis (cell growth and mitosis): potent inhibitor of cell growth and mitosis; chemical stability [6]: limited chemical stability; uncoupled GTPase reaction (tubulin [7]): stimulated the uncoupled GTPase reaction
